We go through one compound from PMC3154929, “Phosphatase-Coupled Universal Kinase Assay and Kinetics for First-Order-Rate Coupling Reaction” (PLoS ONE, 2011).

A word on the Km: it is the substrate concentration at which the rate is half of its maximum.

Each structure is given as a SMILES string.

This assay deals with T1, human glucokinase (GCK) (Homo sapiens, UniProt P35557).
T1 construct: V16 to Q465, N-terminal 6xHis tag, expressed in E. coli
T1 sequence (P35557 16-465): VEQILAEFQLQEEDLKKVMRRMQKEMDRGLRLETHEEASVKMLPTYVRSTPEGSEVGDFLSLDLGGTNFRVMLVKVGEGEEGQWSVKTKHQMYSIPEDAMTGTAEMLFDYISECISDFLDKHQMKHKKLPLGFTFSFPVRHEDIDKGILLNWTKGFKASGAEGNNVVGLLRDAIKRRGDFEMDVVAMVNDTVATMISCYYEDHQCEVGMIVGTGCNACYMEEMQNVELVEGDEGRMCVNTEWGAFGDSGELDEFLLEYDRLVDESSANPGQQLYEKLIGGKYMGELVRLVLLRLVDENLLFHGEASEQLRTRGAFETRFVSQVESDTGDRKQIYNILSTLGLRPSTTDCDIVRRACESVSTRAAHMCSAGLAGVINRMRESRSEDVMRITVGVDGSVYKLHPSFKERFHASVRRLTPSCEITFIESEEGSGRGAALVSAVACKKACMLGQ
The assay can be described thus: CD39L2-coupled malachite green phosphate assay, OD620. Format: biochemical. Conditions: 0.12 mM ATP, 10 mM MgCl2, 10 mM CaCl2, 150 mM NaCl, 25 mM Tris pH 7.5, room temperature.

As for `OC[C@H]1OC(O)[C@H](O)[C@@H](O)[C@@H]1O` (stereo partly shown) [glucose], the Km came out at 7.23 ± 1.44 mM.
